Results reported in US20020177166A1, “Binding motif of a receptor” (MEDVET SCIENCE PTY.LTD., priority 2000, published 2002).
Each block holds one molecule with its values, some of them ahead of it. Ends that are not written are not given here.

Assays:
[1] = test system: Ser585 phosphorylation of βc in MO7e cells; assay: Ser585 phosphorylation and 14-3-3 recruitment in MO7e cells; format: cell-based; conditions: 30 μM H89 for 15 minutes prior to IL-3
Text: (§1) The βc was immunoprecipitated and then subjected to immunoblot analysis using the anti-phospho-Ser585βc antibody. […] Immunoprecipitates were electrophoresed on a polyacrylamide gel and the amount of radiolabelled receptor immunoprecipitated was quantified using a phosphorImager.
(§2) After various treatments, cells were lysed, βc was immunoprecipitated, and subjected to immunoblot analysis with the anti-phospho-Ser585 antibody.

[2] = test system: Ser585 phosphorylation of βc in CTL-EN cells; assay: Ser585 phosphorylation of βc in CTL-EN cells expressing IL-3Ra and wtβc, immunoblot; format: cell-based
Text: as §1, §2

[3] = test system: anti-phospho-585Ser recognition of βc; assay: Western blot of immunoprecipitated βc with peptide-preincubated anti-phospho-585Serβc antibody; format: binding, human; conditions: 100 fold molar excess of peptide
Method: (§3) Lysates of HEK293T cells transfected with wild type βc were immunoprecipitated with anti-βc antibody (MAb 8E4). Immunoprecipitates were run on 7.5% SDS-PAGE under reducing conditions. […] M1 cells expressing GM-CSFRa and βc were either untreated (−) or stimulated with GM-CSF (2 ng/ml) for 30 seconds (+). Lysates of the M1 cells were immunoprecipitated with anti-βc antibody (MAb 8E4) and the immunoprecipitates run on 10% SDS-PAGE under reducing conditions.
These possibilities were initially addressed using ^32P-orthophosphate labelled HEK 293T cells transfected with the GM-CSF receptor (α and βc subunits). These cells were stimulated with GM-CSF, total βc was immunoprecipitated and examined for ^32P-labelling. This is most likely due to the presence of sixty serine and threonine residues in the intracellular region of βc, some of which may be constitutively phosphorylated.

[4] = test system: interaction of hisβc445-881 with p85 and 14-3-3; assay: PKA-phosphorylated hisβc445-881 Sepharose pull-down from COS-7 lysates with peptide competition; format: binding; conditions: 200 mM competing peptides, 1 hour at 4° C.
Method: (a) analysis of PI 3-kinase activity. […] Cells were then lysed and phospho-tyrosine containing proteins were immunoprecipitated (2×10^7 cells/IP) using the 4G10 antibody. Immunoprecipitates were washed in 1× PI 3-kinase buffer (20 mM HEPES, pH 7.5, 5 mM MgCl2, 1 mM EGTA) and PI 3-kinase activity was analysed in a lipid kinase assay using phosphatidyl inositol and g^32PATP as substrates as described in the “Materials and Methods”. Autoradiogram of TLC plate is shown with ^32P-labelled phosphatidyl inositols (PIP) and the origin indicated. […] (b) CTL-EN cells were also examined for the association of βc with p85. […] Cells were then lysed and the βc immunoprecipitated (2×10^7 cells/IP) with the 1C1 anti-βc specific mAb. Immunoprecipitates were then subjected to SDS-PAGE, transferred to nitrocellulose and immunoblotted with anti-p85 (1 mg/ml) followed by detection with HRP-conjugated anti-rabbit IgG antibody and ECL. The filters were then stripped, probed with anti-SHP2 (1 mg/ml), stripped again and finally probed with 1C1 anti-βc (2 mg/ml). […] The association of hisβc445-881 with p85 was also assessed in pull-down experiments together with peptide competition. (c) List of peptides used in the hisbβc445-881 pull-down experiment. S refers to a phospho-serine residue. […]

PKA = target: T1, PKA (Homo sapiens, UniProt P17612); assay: In vitro kinase assay, PKA phosphorylation of hisβc445-881 with peptide competition; format: biochemical; conditions: 200 mM peptides
T1 construct: substrate Hisβc445-881 expressed in bacteria
Method: Peptide competitions were also performed using 200 mM peptides containing the indicated sequences. b) The ability of PKA and CKII to phosphorylate Ser585 of hisβc445-881 was examined by immunoblot analysis using the anti-phospho-Ser585βc antibodies. Filters were probed firstly with anti-phospho-Ser585βc antibodies (top panel). […] Cells were then lysed and βc immunoprecipitated with 1C1. Ser585 phosphorylation of βc was determined using the anti-phospho-Ser585 antibodies (top panel). The filter was then stripped and re-probed with anti βc 1C1 antibodies.
In an effort to identify the kinase involved in the phosphorylation of Ser585, we firstly examined the ability of several kinases to phosphorylate the purified recombinant intracellular portion of βc (hisβc445-881) in vitro. Ser585 of βc lies within a SXXD motif which is known to be a CKII consensus phosphorylation site. Ser585 also lies within a RS motif which is a possible, but poor, PKA phosphorylation site. […] Additional bands for the PKA kinase reactions were evident due to the autocatalytic activity of PKA. […] In this experiment, the non-phospho-HSRSLP peptide is likely to act as a competitive substrate for phosphorylation of Ser585 of hisβc445-881 by PKA. […]

[5] = target: T2, βc association with 14-3-3ζ (Homo sapiens, UniProt P63104); assay: GST-14-3-3-sepharose precipitation of βc from transfected HEK293T lysates with peptide competition; format: binding; conditions: for inhibition of βc association with GST-14-3-3 in pull-down: peptides 100 uM
T2 construct: expressed in transfected cells; host or cells: HEK293T (βc)
T2 sequence (P63104 1-245): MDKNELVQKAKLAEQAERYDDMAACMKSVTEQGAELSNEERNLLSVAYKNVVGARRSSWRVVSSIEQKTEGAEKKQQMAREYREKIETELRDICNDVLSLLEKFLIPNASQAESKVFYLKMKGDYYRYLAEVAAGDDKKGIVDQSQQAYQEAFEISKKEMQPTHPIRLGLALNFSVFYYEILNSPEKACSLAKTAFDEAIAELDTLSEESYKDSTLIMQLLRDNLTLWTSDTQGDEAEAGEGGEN
Method: Lysates of HEK293T cells transfected with βc were immunoprecipitated with GST-14-3-3-sepharose in the absence or in the presence of chemically-synthesised peptides (100 uM) containing a βc sequence ([…]) or a Raf-1 sequence ([…]). In the phosphorylated peptides the relevant phosphorylated serine is underlined. The experiment was performed on 7.5% SDS-PAGE under reducing conditions. The presence of βc in the precipitation experiment was determined by Western blotting with anti-βc antibody (MAb 1C1).
Lysates of HEK293T cells transfected with βc were precipitated with GST-14-3-3-sepharose in the absence or in the presence of various concentrations of chemically-synthesised peptides. […] The appropriate phosphorylated serine in each peptide is underlined. The experiment was performed on 7.5% SDS-PAGE under reducing conditions. The presence of βc in the immunoprecipitates was determined by Western blotting with anti-βc antibody (MAb 1C1).
Cells were lysed in lysis buffer for 30 mins at 4° C. followed by centrifugation of the lysate for 15 mins at 12,000 g 4° C. […] Samples were boiled for 5 mins in SDS sample load buffer in the presence of 2-mercaptoethanol before separating precipitated proteins by SDS-PAGE.
Cell lysates were precipitated or immunoprecipitated in the presence of various concentrations of the following peptides: βc peptide sequence […] either non phosphorylated or serine phosphorylated and a scrambled peptide […]. Raf1 peptides corresponding to the sequence […] were also used and were either non phosphorylated or serine phosphorylated. The corresponding phosphorylated serine in each peptide is underlined. Peptides were synthesised by Chiron Mimotopes, Melbourne, Australia. The presence of βc in either the immunoprecipitation or precipitation experiment was determined by Western blotting with anti-βc antibody (MAb 1C1).

[6] = test system: 585Ser phosphorylation of βc in M1 myeloid leukaemic cells; assay: 585Ser phosphorylation of βc in M1 cells, immunoblot; format: cell-based; conditions: 2 ng/ml GM-CSF
Method: as §3

TF-1 = TF-1 proliferation assay; format: cell-based; conditions: recombinant human cytokine produced in E. coli
Method: Acad. Sci., 91, 5838. Cytokine purity and quantitation was determined by HPLC analysis and Coomasie staining of SDS-PAGE separated proteins.

[7] = test system: CC[C@H](C)[C@H](NC(=O)[C@H](CC(=O)O)NC(=O)[C@@H]1CCCN1C(=O)[C@H](CC(C)C)NC(=O)[C@H](CO)NC(=O)[C@H](CCCNC(=N)N)NC(=O)[C@H](CO)NC(=O)[C@H](Cc1c[nH]cn1)NC(=O)[C@@H]1CCCN1C(=O)[C@@H]1CCCN1C(=O)CNC(=O)[C@H](CC(C)C)NC(=O)[C@@H](N)CS)C(=O)N[C@@H](CC(C)C)C(=O)NCC(=O)O; assay: purified protein, by the assay type; conditions: other: peptide as PKA substrate, hyperbolic regression analysis; 21.0 °C

Molecule: O=S(=O)(NCCNC/C=C/c1ccc(Br)cc1)c1cccc2cnccc12 [H89]
- effect on IL-3 induced phosphorylation of Ser585 [1]: significantly reduced the IL-3 induced phosphorylation of Ser585
- effect on IL-3 induced phosphorylation of Ser585 ([2]; 30 μM H89 for 15 minutes prior to IL-3): significantly reduced the IL-3 induced phosphorylation of Ser585

Molecule: CCCC(=O)Nc1ncnc2c1ncn2[C@@H]1O[C@@H]2COP(=O)(O)O[C@H]2[C@H]1OC(=O)CCC [db-cAMP, dibutyryl cAMP]
- Ser585 phosphorylation of βc after stimulation ([2]; 50 ng/ml IL-3, 50 μM forskolin or 100 μM dibutyryl cAMP): increased Ser585 phosphorylation

- effect on phosphorylation of hisβc445-881 by PKA (PKA): did not
Molecule: CLPLSGPDSHIRGPL [scrambled peptide]
- inhibition of anti-phospho-585Ser recognition of βc [3]: did not
- effect on interaction of p85 with hisβc445-881 [4]: had no apparent effect on this interaction

- inhibition of βc association with GST-14-3-3 in pull-down [5]: did not
Molecule: CLSQRQRSTSTPNVHM [nonphosphorylated Raf-1 peptide]

Molecule: CLSQRQRSTSTPNVHM [serine phosphorylated Raf-1 peptide] (also: serine phosphorylated, position not given here)
- inhibition of βc association with GST-14-3-3 in pull-down [5]: able to inhibit βc association with 14-3-3

- inhibition of βc association with 14-3-3, dose dependence and specificity ([5]; various concentrations of peptides (FIG. 8)): failed to inhibit this association
Molecule: CPLSLRSKPSPGPGP

Molecule: GM-CSF: recombinant human GM-CSF produced in E. coli
- 585Ser phosphorylation of βc [6]: strongly upregulated ^585Ser phosphorylation of βc
- ED50 in TF-1 proliferation assay (TF-1): 0.03 ng/mL

Molecule: PKA (Homo sapiens)
- Km [7]: 376 µM
- Vmax [7]: 250 nmol/min/mg
